“Also recorded” adds a separate entry of the source.
Key:
[1] = tested on: MDA-MB-231 cancer cells; assay: MChip purification assay, cells loaded in middle channel, cancer cell readout; type: cell-based; conditions: FMLP vs control; FIG. 14
Experimental: (§1) WBCs and MDA-MB-231 cancer cells were mixed at a 1:1 ratio in FBS-free DMEM medium and loaded to the top edge of the middle/main channel. The positions of these cells were determined by an optimized flow rate and open/close of channel inlets/outlets. Briefly, the microfluidic device was filled with cell culture medium and incubator at 37° C. for one hour. Sealed all the inlet/outlets except cell loading inlet (middle/main channel) and channel #1 outlet (top). 50 μL cell mixture was loaded into cell loading inlet and the cell alignment was achieved using a syringe pump (5 μL/min) that connected to the channel #1 outlet (top). Then replaced the cell suspension with FBS-free medium and incubated for 30 minutes. The FBS-free medium flowed into the middle channel, the top channel (first outer channel) #1 was filled with medium containing 10% FBS, and the bottom channel (second outer channel) […] was filled with FBS-free medium containing FMLP (200 ng/mL). The flow rates for 3 channels were 0.1 μL/min. The cells were incubated at 37° C. for 24 hours.
(§2) To retrieve the cancer cells of heterogeneously migratory properties with low WBCs contamination, the cell loading channel and “chemos” loading channel (middle, #9) were swapped: cells was loaded to the top part of the middle channel (#9) while the serum was loaded into side channels (top/bottom, #1). […]

[2] = tested on: WBCs; assay: MChip purification assay, cells loaded in middle channel, WBC readout; type: cell-based, human
Experimental: as §1
The blood sample was drawn from multiple healthy donors in compliance with the applicable federal, state, and institutional policies and procedures in the United States. Healthy human blood samples were obtained from the Clinical and Translational Research Unit of the University of Georgia with informed consent according to an IRB-approved protocol. The collected blood samples were stored in vacutainer K2-EDTA (BD, Franklin Lakes, N.J.). Complete blood count (CBC) reported was obtained to determine the number & subtypes of WBCs. The blood processing with iFCS was discussed in our previous work (Zhao, et al., Lab on a Chip 2019, 19 (10), 1860-76, incorporated by reference above).^10
as §2

[3] = tested on: MDA-MB-231 breast cancer cell line; assay: MChip cancer cell migration assay, cells loaded in channel #1; type: cell-based
Experimental: The microfluidic device was pre-filled with FBS-free cell culture medium and incubated at 37° C. for 1 hour. All of the channel inlet/outlet, except cell loading inlets (top/bottom channel #1) and middle channel outlet, are sealed with tape before cell loading. Cancer cells were collected from culture plates with 0.25% Trypsin-EDTA (ThermoFisher, Waltham, Mass.) and pelleted by centrifugation at 500 g for 5 minutes. Then, the cells were re-suspended in FBS-free culture medium, DMEM or RPMI (ThermoFisher, Waltham, Mass.), to a concentration of 5×10^5 cells/mL. 50 μL of cell suspension was pipetted into the cell loading channels. One syringe pump (Chemyx, Stafford, Tex.) was connected to the middle channel outlet and the flow rate was 5 μL/min. When all entrances of migration channels were filled with cancer cells, the pump was stopped and the cell suspension was replaced with FBS-free cell culture medium. The device was then placed in the incubator (37° C., 5% CO2) for 40 min to ensure the cell adhesion to the glass slide. Then, the tape/covers were removed from the cell loading outlet and middle inlet, and these inlets were connected with syringe pumps. The FBS-free medium flowed into the cell loading channel while the middle channel was filled with medium containing 10% FBS. The flow rates for 3 channels were 0.1 μL/min. The entire chip was placed in the cell culture incubator (37° C., 5% CO2) for about 24 hours. […]
Since migration time^14, 21 and FBS concentration were key parameters that determined the final position of individual cells, a series experiment were conducted to test the influence of different FBS concentrations (0%, 5%, and 10%) and various working time (6 hr, 12 hr, and 24 hr). […] It is noteworthy that cell migratory behaviors were also determined by the glass coating method, for example, coating using different concentrations of collagen and poly-L-Lysine (FIG. 7). […]

[4] = tested on: WBCs; assay: MChip WBC migration assay, cells loaded in channel #1; type: cell-based, human
Experimental: FIGS. 6A-6H illustrate purification of circulating tumor cells isolated from human blood using iFCS separation and an embodiment of a device of the present disclosure. FIG. 6A is images validation of combination effect of using iFCS and a device of the present disclosure with cultured cancer cells spiked into healthy blood. Left, an iFCS device was used to recover more than 99.2% spiked cancer cells and deplete many WBCs (˜500 cells per mL). Collected cancer cells and WBCs were injected into the “MChip” of the present disclosure to further purify CTC by removing most remaining WBCs based on different migratory abilities, as shown in the right image. Migratory cancer cells could be retrieved with high purity. FIG. 6B is a graph comparing migratory abilities for cells before and after iFCS processing. […] FIG. 6C illustrates WBC (n=-5000, channel #1 loading) migration assays under control (FBS only), WBC chemo-attractant (FM LP) and WBC chemo-repellent (Slit2). FBS (10%) or Slit2 (5 μg/mL) were loaded into the middle channel (channel #9), while FMLP (200 ng/mL) were filled in the […]. Only the WBCs of >200 μm Y position were counted. […] Right, images of WBCs 24-hour migration assay using Slit2 (5 μg/mL) in 10% FBS. Flow rate v=0.1 μL/min. WBCs were stained with cell tracker red. Fluorescence images were taken at 0 hour and 24 hours. Circles indicate the migratory WBCs. FIG. 6D is a graph illustrating breast cancer cells, MDA-MB-231, loaded into channel #1 with Slit2 (5 μg/mL) in 10% FBS in the middle channel. Flow rate v=0.1 μL/min. The graph indicates positions of MDA-MB-231 and the rectangular symbols indicate the mean value. FIG. 6E is an image of WBCs (red) and MDA-MB-231 (green) mixture (1:1) migration assay with middle channel (channel #9) filled with 10% FBS and Slit2 (5 μg/mL). At 24 hours, most of the migratory cancer cells moved into the migration/collection channels with ˜2 WBCs contamination. FIG. 6F illustrates a WBC migration assay using FBS, FMLP, and Slit2. WBCs (n=˜2500) loaded into the top edge of the middle channel. […]

[5] = 1:1 mixture, 10% FBS top channel, 0% FBS middle, 0% FBS + FMLP (200 ng/mL) bottom, 24 hours

fMet-Leu-Phe [FMLP]
effect on MDA-MB-231 migration [1]: without a negative effect | WBCs moved to the bottom part [2, 5]: 88.3% | WBCs stayed in the middle loading channel [2, 5]: 11.2% | effect on WBC migration direction ([2]; FMLP in bottom side channel, WBCs loaded at top edge of middle channel, FIG. 6F): attract the majority of WBCs to the bottom part; also recorded: significant performance in inducing cells toward the bottom channel

collagen
average migration distance by glass coating method ([3]; collagen vs poly-L-Lysine coating at different concentrations, FIG. 7): largest

B1: slit2: Slit guidance ligand 2, chemo-repellent for WBCs, neutrophil inhibitor (protein, UniProt O94813 31-1529, looked up)
Slit homolog 2 protein: QCSCSGSTVDCHGLALRSVPRNIPRNTERLDLNGNNITRITKTDFAGLRHLRVLQLMENKISTIERGAFQDLKELERLRLNRNHLQLFPELLFLGTAKLYRLDLSENQIQAIPRKAFRGAVDIKNLQLDYNQISCIEDGAFRALRDLEVLTLNNNNITRLSVASFNHMPKLRTFRLHSNNLYCDCHLAWLSDWLRQRPRVGLYTQCMGPSHLRGHNVAEVQKREFVCSGHQSFMAPSCSVLHCPAACTCSNNIVDCRGKGLTEIPTNLPETITEIRLEQNTIKVIPPGAFSPYKKLRRIDLSNNQISELAPDAFQGLRSLNSLVLYGNKITELPKSLFEGLFSLQLLLLNANKINCLRVDAFQDLHNLNLLSLYDNKLQTIAKGTFSPLRAIQTMHLAQNPFICDCHLKWLADYLHTNPIETSGARCTSPRRLANKRIGQIKSKKFRCSAKEQYFIPGTEDYRSKLSGDCFADLACPEKCRCEGTTVDCSNQKLNKIPEHIPQYTAELRLNNNEFTVLEATGIFKKLPQLRKINFSNNKITDIEEGAFEGASGVNEILLTSNRLENVQHKMFKGLESLKTLMLRSNRITCVGNDSFIGLSSVRLLSLYDNQITTVAPGAFDTLHSLSTLNLLANPFNCNCYLAWLGEWLRKKRIVTGNPRCQKPYFLKEIPIQDVAIQDFTCDDGNDDNSCSPLSRCPTECTCLDTVVRCSNKGLKVLPKGIPRDVTELYLDGNQFTLVPKELSNYKHLTLIDLSNNRISTLSNQSFSNMTQLLTLILSYNRLRCIPPRTFDGLKSLRLLSLHGNDISVVPEGAFNDLSALSHLAIGANPLYCDCNMQWLSDWVKSEYKEPGIARCAGPGEMADKLLLTTPSKKFTCQGPVDVNILAKCNPCLSNPCKNDGTCNSDPVDFYRCTCPYGFKGQDCDVPIHACISNPCKHGGTCHLKEGEEDGFWCICADGFEGENCEVNVDDCEDNDCENNSTCVDGINNYTCLCPPEYTGELCEEKLDFCAQDLNPCQHDSKCILTPKGFKCDCTPGYVGEHCDIDFDDCQDNKCKNGAHCTDAVNGYTCICPEGYSGLFCEFSPPMVLPRTSPCDNFDCQNGAQCIVRINEPICQCLPGYQGEKCEKLVSVNFINKESYLQIPSAKVRPQTNITLQIATDEDSGILLYKGDKDHIAVELYRGRVRASYDTGSHPASAIYSVETINDGNFHIVELLALDQSLSLSVDGGNPKIITNLSKQSTLNFDSPLYVGGMPGKSNVASLRQAPGQNGTSFHGCIRNLYINSELQDFQKVPMQTGILPGCEPCHKKVCAHGTCQPSSQAGFTCECQEGWMGPLCDQRTNDPCLGNKCVHGTCLPINAFSYSCKCLEGHGGVLCDEEEDLFNPCQAIKCKHGKCRLSGLGQPYCECSSGYTGDSCDREISCRGERIRDYYQKQQGYAACQTTKKVSRLECRGGCAGGQCCGPLRSKRRKYSFECTDGSSFVDEVEKVVKCGCTRCVS
WBCs contamination in migration/collection channels ([4]; WBCs and MDA-MB-231 mixture (1:1), middle channel 10% FBS and Slit2 (5 μg/mL), 24 hours): ~2 WBCs | loaded WBCs remaining in the loading channel with non-migratory cells ([4]; middle channel 10% FBS and 5 μg/mL slit2): 99.6% | WBCs that left the cell loading channel (#1) ([4]; middle channel loaded with 10% FBS and 5 μg/mL slit2, 24 hours, 0.1 μL/min): 0.4% | cancer cells squeezed into the migration channel ([3]; 5 μg/mL slit2 in 10% FBS in middle channel, 0.1 μL/min): 85% | effect on migratory behavior of MDA-MB-231 cancer cells ([3]; 5 μg/mL slit2 in 10% FBS in middle channel, P=0.004): slightly compromise

— patent US20210039089A1, “DEVICES, KITS, AND METHODS FOR LABEL-FREE SEPARATION AND SUBTYPING OF RARE CELLS” (University of Georgia Research Foundation, Inc., priority 2019, published 2021)
